Patent US20230265151A1, “GIP/GLP1 CO-AGONIST COMPOUNDS” (priority 2020, published 2023)
Where two headings read alike, the source gives them in different places.

Tests used:
Format in all cases: cell-based
hGIPR = target: T1, hGIPR (Homo sapiens, UniProt P48546); test: Functional cAMP formation (HTRF) in HEK-293 clonal cells expressing hGIPR, 0.1% bovine casein, without or with 1.0% human serum albumin; conditions: for EC50: geometric mean
T1 construct: expressed in transfected cells
T1 sequence (P48546 22-466): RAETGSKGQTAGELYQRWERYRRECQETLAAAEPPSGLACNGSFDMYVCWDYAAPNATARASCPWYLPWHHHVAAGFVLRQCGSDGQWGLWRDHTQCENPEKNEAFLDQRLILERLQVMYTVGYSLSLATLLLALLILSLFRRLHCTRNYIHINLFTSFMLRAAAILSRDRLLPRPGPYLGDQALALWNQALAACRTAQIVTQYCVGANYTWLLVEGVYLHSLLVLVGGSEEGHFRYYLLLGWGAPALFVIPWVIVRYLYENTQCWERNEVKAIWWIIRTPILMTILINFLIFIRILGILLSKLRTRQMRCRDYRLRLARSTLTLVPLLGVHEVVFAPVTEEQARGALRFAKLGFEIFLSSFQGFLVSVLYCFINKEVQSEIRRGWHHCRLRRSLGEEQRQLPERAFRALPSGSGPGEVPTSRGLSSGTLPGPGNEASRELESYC
Summary of the method: (§1)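 Cells were stimulated with peptide for 30 min at 37° C, then intracellular cAMP was measured by competitive HTRF (665/620 nm ratio) and converted to nM using a cAMP standard curve. Relative EC50 and Emax came from four-parameter logistic fits of percent maximal response against peptide concentration.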

hGCGR = target: T2, hGCGR (Homo sapiens, UniProt P47871); test: Functional cAMP formation (HTRF) in HEK-293 clonal cells expressing hGCGR, 0.1% bovine casein, without or with 1.0% human serum albumin; conditions: geometric mean
T2 construct: expressed in transfected cells
T2 sequence (P47871 26-477): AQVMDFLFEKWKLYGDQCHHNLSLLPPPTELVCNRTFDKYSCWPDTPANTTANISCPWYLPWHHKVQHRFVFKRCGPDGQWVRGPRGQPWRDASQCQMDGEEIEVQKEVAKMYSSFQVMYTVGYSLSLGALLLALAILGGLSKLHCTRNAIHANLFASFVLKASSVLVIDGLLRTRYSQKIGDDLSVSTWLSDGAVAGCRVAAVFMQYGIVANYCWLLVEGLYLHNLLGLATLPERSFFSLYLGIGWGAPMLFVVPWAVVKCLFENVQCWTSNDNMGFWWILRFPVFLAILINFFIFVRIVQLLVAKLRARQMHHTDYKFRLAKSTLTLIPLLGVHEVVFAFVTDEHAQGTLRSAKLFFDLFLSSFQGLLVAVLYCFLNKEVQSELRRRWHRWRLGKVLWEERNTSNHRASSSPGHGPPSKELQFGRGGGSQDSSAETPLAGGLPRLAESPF
Summary of the method: as §1

hGLP-1R = hGLP-1R (Homo sapiens, UniProt P43220); test: Functional cAMP formation (HTRF) in HEK-293 clonal cells expressing hGLP-1R, 0.1% bovine casein, without or with 1.0% human serum albumin; parameters: expressed in transfected cells; conditions: geometric mean
hGLP-1R, sequence (P43220 24-463): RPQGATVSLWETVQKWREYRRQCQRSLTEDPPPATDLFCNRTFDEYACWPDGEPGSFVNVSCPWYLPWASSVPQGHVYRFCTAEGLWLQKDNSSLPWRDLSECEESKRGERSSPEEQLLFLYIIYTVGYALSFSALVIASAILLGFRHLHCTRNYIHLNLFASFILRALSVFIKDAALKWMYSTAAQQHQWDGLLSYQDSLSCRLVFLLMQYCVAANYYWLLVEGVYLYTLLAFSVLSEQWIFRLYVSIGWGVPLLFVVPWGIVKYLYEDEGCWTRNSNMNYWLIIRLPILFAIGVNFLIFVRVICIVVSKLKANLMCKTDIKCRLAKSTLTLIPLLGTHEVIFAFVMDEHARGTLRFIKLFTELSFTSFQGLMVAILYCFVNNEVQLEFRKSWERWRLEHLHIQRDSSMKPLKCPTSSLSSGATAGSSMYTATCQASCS
Summary of the method: as §1

| Compound | Emax (hGIPR; HEK293, read-out: hGIPR Emax, % ± SEM, 0.1% bovine casein and 1.0% human serum albumin, 37° C., percent of maximal response to GIP(1-42)NH2) | EC50 (hGIPR; hGIPR EC50, nM (SEM, n), 0.1% bovine casein and 1.0% human serum albumin, 37° C.) | EC50 (hGIPR; hGIPR EC50, nM (SEM, n), cAMP, incubated at 37° C., 0.1% bovine casein (no human serum albumin)) | EC50 (hGCGR; hGCGR EC50, nM (SEM, n), 0.1% bovine casein and 1.0% human serum albumin, 37° C.) | EC50 (hGCGR; hGCGR EC50, nM (SEM, n), cAMP, incubated at 37° C., 0.1% bovine casein (no human serum albumin)) | EC50 (hGLP-1R; hGLP-1R EC50, nM (SEM, n), 0.1% bovine casein and 1.0% human serum albumin, 37° C.) | EC50 (hGLP-1R; hGLP-1R EC50, nM (SEM, n), cAMP, incubated at 37° C., 0.1% bovine casein (no human serum albumin)) | Emax (hGIPR; HEK293, 0.1% bovine casein and 1.0% human serum albumin, 37° C., percent of maximal response to GIP(1-42)NH2, read-out: hGIPR Emax, % ± SEM) | Emax (hGIPR; HEK293, percent of maximal response to GIP(1-42)NH2, 37° C., 0.1% bovine casein, arithmetic mean, read-out: hGIPR Emax, % ± SEM) | EC50 (hGIPR; cAMP, incubated at 37° C., 0.1% bovine casein (no human serum albumin), read-out: hGIPR EC50, nM (SEM, n)) | EC50 (hGCGR; 0.1% bovine casein and 1.0% human serum albumin, 37° C., read-out: hGCGR EC50, nM (SEM, n)) | EC50 (hGCGR; cAMP, incubated at 37° C., 0.1% bovine casein (no human serum albumin), read-out: hGCGR EC50, nM (SEM, n)) | EC50 (hGLP-1R; 0.1% bovine casein and 1.0% human serum albumin, 37° C., read-out: hGLP-1R EC50, nM (SEM, n)) | EC50 (hGLP-1R; cAMP, incubated at 37° C., 0.1% bovine casein (no human serum albumin), read-out: hGLP-1R EC50, nM (SEM, n)) |
| --- | --- | --- | --- | --- | --- | --- | --- | --- | --- | --- | --- | --- | --- | --- |
| CC[C@H](C)[C@H](NC(=O)[C@H](CC(C)C)NC(=O)[C@](C)(Cc1ccc(O)cc1)NC(=O)[C@H](CCCCNC(=O)COCCOCCNC(=O)CC[C@H](NC(=O)CCCCCCCCCCCCC(=O)O)C(=O)O)NC(=O)[C@@H](NC(=O)[C@H](Cc1ccccc1)NC(=O)[C@H](CCC(=O)O)NC(=O)C(C)(C)NC(=O)[C@H](CCC(N)=O)NC(=O)[C@H](C)NC(=O)[C@H](CCCCNC(=O)COCCOCCNC(=O)CC[C@H](NC(=O)CCCCCCCCCCCCC(=O)O)C(=O)O)NC(=O)[C@H](CCCN)NC(=O)[C@H](CC(=O)O)NC(=O)[C@H](CC(C)C)NC(=O)[C@](C)(CC(C)C)NC(=O)[C@@H](NC(=O)[C@H](CO)NC(=O)[C@H](Cc1ccncc1)NC(=O)[C@H](CC(=O)O)NC(=O)[C@H](CO)NC(=O)[C@@H](NC(=O)[C@](C)(Cc1ccccc1F)NC(=O)[C@@H](NC(=O)CNC(=O)[C@H](CCC(=O)O)NC(=O)C(C)(C)NC(=O)[C@@H](N)Cc1ccc(O)cc1)[C@@H](C)O)[C@@H](C)O)[C@@H](C)CC)[C@@H](C)CC)C(=O)N[C@@H](CCC(=O)O)C(=O)NCC(=O)NCC(=O)N1CCC[C@H]1C(=O)N[C@@H](CO)C(=O)N[C@@H](CO)C(=O)NCC(=O)N[C@@H](C)C(=O)N1CCC[C@H]1C(=O)N1CCC[C@H]1C(=O)N1CCC[C@H]1C(=O)N[C@@H](CO)C(N)=O [Example 79] | 95% | 2.31 nM | 0.013 nM | > 9950 nM | > 9950 nM | 15.1 nM | 0.223 nM | – | – | – | – | – | – | – |
| CC[C@H](C)[C@H](NC(=O)[C@H](CCCN)NC(=O)[C@H](CC(=O)O)NC(=O)[C@H](CC(C)C)NC(=O)[C@](C)(CC(C)C)NC(=O)[C@@H](NC(=O)[C@H](CO)NC(=O)[C@H](Cc1ccncc1)NC(=O)[C@H](CC(=O)O)NC(=O)[C@H](CO)NC(=O)[C@@H](NC(=O)[C@](C)(Cc1ccccc1F)NC(=O)[C@@H](NC(=O)CNC(=O)[C@H](CCC(=O)O)NC(=O)C(C)(C)NC(=O)[C@@H](N)Cc1ccc(O)cc1)[C@@H](C)O)[C@@H](C)O)[C@@H](C)CC)C(=O)N[C@@H](C)C(=O)N[C@@H](CCC(N)=O)C(=O)NC(C)(C)C(=O)N[C@@H](CCC(=O)O)C(=O)N[C@@H](Cc1ccccc1)C(=O)N[C@H](C(=O)N[C@@H](CCCCNC(=O)[C@@H](N)CCCCNC(=O)[C@@H](N)CCCCNC(=O)CC[C@H](NC(=O)CCCCCCCCCCCCC(=O)O)C(=O)O)C(=O)N[C@@](C)(Cc1ccc(O)cc1)C(=O)N[C@@H](CC(C)C)C(=O)N[C@H](C(=O)N[C@@H](CCC(=O)O)C(=O)NCC(=O)NCC(=O)N[C@@H](CCCCNC(=O)[C@@H](N)CCCCNC(=O)[C@@H](N)CCCCNC(=O)CC[C@H](NC(=O)CCCCCCCCCCCCC(=O)O)C(=O)O)C(=O)N[C@@H](CO)C(=O)N[C@@H](CO)C(=O)NCC(=O)N[C@@H](C)C(=O)N1CCC[C@H]1C(=O)N1CCC[C@H]1C(=O)N1CCC[C@H]1C(=O)N[C@@H](CO)C(N)=O)[C@@H](C)CC)[C@@H](C)CC [Example 198] | – | – | – | – | – | – | – | 83.1 ± 3.45% | 94 ± 1.17% | 0.0269 nM | > 9950 nM | > 9950 nM | 14.5 nM | 0.362 nM |
